Laboratory results published in patent publication US8158779B2, “Antiviral nucleosides” (Medivir AB, priority 2006, dated 2012).

Assays:
[1] = tested on: Renilla luciferase HCV replicon cells (2209-23)
in vitro = details: human
HCV Pol = target: T1, HCV Pol (Hepatitis C virus genotype 1b, UniProt Q9WMX2); test: Renilla luciferase HCV replicon assay; format: cell-based
T1 construct: expressed in transfected cells

[2] = tested on: human primary hepatocytes; test: Intracellular triphosphate concentration and half life; format: in vitro ADME; details: 2 μM
Procedure: The putative active species of the compounds of the invention is β-D-2′-deoxy-2′-β-C-methyl-4′-azidocytidine triphosphate. The stability of the triphosphate is determined in fresh human primary hepatocytes (CellzDirect or In Vitro Technologies) pre-incubated with tritiated parent compound. The hepatocytes are cultured on 6 well collagen coated plates (BD Biosciences), typically at 1.5 million cells/well using complete serum-containing medium (CellzDirect or In Vitro Technologies)/37° C./5% CO2. Various hepatocyte strains are available, such as Hu497, MHL-091806 and Hu504 and it is therefore useful to test such strains in parallel and calculate mean values from a range of strains.
The pre-incubation is typically for 24 hours with 2 μM of the tritiated parent at 10 μC/ml. […] The concentration of intracellular triphosphate is quantified at different time points up to 72 hours. […]
At the appropriate timepoint, cells are harvested by aspirating the cell culture medium and washing the cells with cold PBS. […] The parent and intracellular metabolites are identified by comparison of the retention times of the intracellular species in the radiochromatogram with the retention of non-radioactive reference standards spiked in the cell extract samples and detected by UV absorption, typically at 270 nm […]

T1 sequence (Q9WMX2 2420-3010): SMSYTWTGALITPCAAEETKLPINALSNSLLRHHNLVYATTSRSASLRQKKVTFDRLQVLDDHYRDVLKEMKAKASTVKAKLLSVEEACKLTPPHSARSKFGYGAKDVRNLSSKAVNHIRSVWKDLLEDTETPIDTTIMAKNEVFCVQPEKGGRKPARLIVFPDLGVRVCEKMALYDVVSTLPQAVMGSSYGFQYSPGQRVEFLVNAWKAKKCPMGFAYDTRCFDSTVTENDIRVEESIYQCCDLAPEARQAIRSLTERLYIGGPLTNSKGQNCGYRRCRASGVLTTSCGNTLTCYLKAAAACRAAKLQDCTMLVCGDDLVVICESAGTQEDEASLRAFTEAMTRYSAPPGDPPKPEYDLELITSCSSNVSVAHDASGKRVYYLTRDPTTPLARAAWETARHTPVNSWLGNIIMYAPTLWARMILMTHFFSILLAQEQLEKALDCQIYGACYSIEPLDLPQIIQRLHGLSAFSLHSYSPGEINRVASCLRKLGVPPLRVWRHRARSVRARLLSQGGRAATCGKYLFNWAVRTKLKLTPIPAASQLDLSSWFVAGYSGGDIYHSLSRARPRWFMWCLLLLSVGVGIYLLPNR

SMILES	cytotoxicity in the replicon assay (in words) [1]	cytotoxicity at 100 µM (in vitro)	activity in cell based replicon assay for HCV polymerase activity (in words) (HCV Pol)	inhibition at 100 µM (HCV Pol; 100 μM, cell based replicon assay, read-out: Maximum % Inhibition HCV Pol (100 μM))	steady state triphosphate level at 24 hours [2]
CC1C(n2ccc(N)nc2=O)OC(CO)(N=[N+]=[N-])C1O (centres unmarked) [Compound 22, 4-Amino-1-(5-azido-4-hydroxy-5-hydroxymethyl-3-methyl-tetrahydro-furan-2-yl)-1H-pyrimidin-2-one]	low levels of cytoxicity	9.48%	good activity	98.6%	
C[C@@]1(F)[C@H](O)[C@@H](CO)O[C@H]1n1ccc(N)nc1=O [PSI-6130, β-D-2′-deoxy-2′-fluoro-2′-β-C-methylcytidine]					1.3 pM/million cells
